Measured values published in BindingDB's records for patent WO2022129953 (HEPTARES THERAPEUTICS LIMITED, 2022).
Where “and” joins values, the source holds several entries; their conditions need not be identical. Identical values can stand only once.

Target: Replicase polyprotein 1ab (Severe acute respiratory syndrome coronavirus 2, UniProt P0DTD1)
Assay: SARS-CoV-2 Mpro enzyme assay
Procedure: The activity of SARS-Cov-2 Mpro was determined in a Fluorescence Resonance Energy Transfer (FRET)-based enzymatic assay using FRET Substrate Dabcyl-KTSAVLQSGFRKM-E(Edans)-Amide. In brief, […] of test compounds (concentrations ranging from […]) was preincubated with […] of 20 nM (final concentration) Mpro enzyme for 30 min at 30 °C in an assay buffer containing 20 mM HEPES, 120 mM NaCI, 0.4 mM EDTA, and 4 mM DTT and 20% glycerol. Reaction was initiated by addition of 10 pL of […] (final concentration) of FRET substrate (Dabcyl-KTSAVLQSGFRKM-E (Edans)-Amide). The reaction was incubated for 1 h and the resulting fluorescent intensity was measured at Ex=360 nm/Em=490 nm at 30 °C using a SPARK 20M plate reader (Tecan). Boceprevir was used a reference standard compound. pICso and pKi were determined using 4PL GraphPad Prism and data were represented as a mean n=2± SD.

CC(C)(C)NC(=O)C(=O)C(CC1CCNC1=O)NC(=O)[C@H](CC1CC1)NC(=O)/C=C/c1ccc(Cl)cc1F (stereo partly specified) [WO2022129953, Example 5]
IC50: 501 nM

CC[C@H](CC(=O)N[C@@H](CC1CC1)C(=O)NC(C[C@@H]1CCNC1=O)C(=O)C(=O)NC1CC1)c1ccccc1 (stereo partly specified) [WO2022129953, Example 33]
IC50: 25 nM

O=C(/C=C/c1ccc(Cl)cc1F)N[C@@H](CC1CCC1)C(=O)NC(C[C@@H]1CCNC1=O)C(=O)C(=O)NC1CC1 (stereo partly specified) [WO2022129953, Example 31]
IC50: 25 nM

O=C(N[C@@H](CC1CC1)C(=O)NC(C[C@@H]1CCNC1=O)C(=O)C(=O)NC1CC1)OCc1ccccc1 (stereo partly specified) [WO2022129953, Example 29]
IC50: 16 nM

CCNC(=O)C(=O)C(C[C@@H]1CCNC1=O)NC(=O)[C@H](CC1CC1)NC(=O)/C=C/c1ccc(Cl)cc1F (stereo partly specified) [WO2022129953, Example 19]
IC50: 13 nM

CC(C)(C)C[C@H](NC(=O)/C=C/c1ccc(Cl)cc1F)C(=O)NC(C[C@@H]1CCNC1=O)C(=O)C(=O)NC1CC1 (stereo partly specified) [WO2022129953, Example 11]
IC50: 7.94 nM

CC[C@@H](CC(=O)N[C@@H](CC1CC1)C(=O)NC(C[C@@H]1CCNC1=O)C(=O)C(=O)NC1CC1)c1ccccc1 (stereo partly specified) [WO2022129953, Example 32]
IC50: 13 nM

CC(C)(C)C[C@H](NC(=O)/C=C/c1ccc(Cl)cc1Cl)C(=O)NC(C[C@@H]1CCNC1=O)C(=O)C(=O)C#N (stereo partly specified) [WO2022129953, Example 9]
IC50: 398 nM

NC(=O)C(=O)C(C[C@@H]1CCNC1=O)NC(=O)[C@H](CC1CC1)NC(=O)/C=C/c1ccc(Cl)cc1F (stereo partly specified) [WO2022129953, Example 1]
IC50: 13 nM

O=C(CCc1ccc(Cl)cc1Cl)N[C@@H](CC1CC1)C(=O)NC(C[C@@H]1CCNC1=O)C(=O)C(=O)NC1CC1 (stereo partly specified) [WO2022129953, Example 30]
IC50: 20 nM

NC(=O)C(=O)C(CC1CCCC1)NC(=O)[C@H](CC1CC1)NC(=O)/C=C/c1ccccc1 (stereo partly specified) [WO2022129953, Example 7]
IC50: 7940 nM

C[C@H](CC(=O)N[C@@H](CC(C)(C)C)C(=O)NC(C[C@@H]1CCNC1=O)C(=O)C(=O)NC1CC1)c1ccccc1 (stereo partly specified) [WO2022129953, Example 13]
IC50: 16 nM

CCNC(=O)C(=O)C(C[C@@H]1CCNC1=O)NC(=O)[C@H](CC(C)(C)C)NC(=O)/C=C/c1ccc(Cl)cc1Cl (stereo partly specified) [WO2022129953, Example 26]
IC50: 10 nM

NC(=O)/C(=N\O)C(C[C@@H]1CCNC1=O)NC(=O)[C@H](CC1CC1)NC(=O)/C=C/c1ccccc1 (stereo partly specified) [WO2022129953, Example 4]
IC50: 1000 nM

CC(C)(C)C[C@H](NC(=O)/C=C/c1ccc(Cl)cc1Cl)C(=O)NC(C[C@@H]1CCNC1=O)C(=O)C(N)=O (stereo partly specified) [WO2022129953, Example 27]
IC50: 7.9 nM

NC(=O)C(=O)C(C[C@@H]1CCNC1=O)NC(=O)[C@H](CC1CC1)NC(=O)/C=C/c1ccc(Cl)cc1Cl (stereo partly specified) [WO2022129953, Example 20]
IC50: 100 nM

O=C(/C=C/c1ccc(Cl)cc1Cl)N[C@@H](CC1CC1)C(=O)NC(C[C@@H]1CCNC1=O)C(=O)C(=O)NC1CC1 (stereo partly specified) [WO2022129953, Example 25]
IC50: 10 nM

CCNC(=O)C(=O)C(C[C@@H]1CCNC1=O)NC(=O)[C@H](CC1CC1)NC(=O)/C=C/c1ccc(Cl)cc1Cl (stereo partly specified) [WO2022129953, Example 24]
IC50: 13 nM

CC(C)C[C@H](NC(=O)/C=C/c1ccc(Cl)cc1F)C(=O)NC(C[C@@H]1CCNC1=O)C(=O)C(N)=O (stereo partly specified) [WO2022129953, Example 18]
IC50: 13 nM

CC[C@H](CC(=O)N[C@@H](CC(C)(C)C)C(=O)NC(C[C@@H]1CCNC1=O)C(=O)C(=O)NC1CC1)c1ccccc1 (stereo partly specified) [WO2022129953, Example 15]
IC50: 10 nM

CC(C)(C)C[C@H](NC(=O)/C=C/c1ccc(Cl)cc1Cl)C(=O)NC(C[C@@H]1CCNC1=O)C(=O)C(=O)NC1CC1 (stereo partly specified) [WO2022129953, Example 10]
IC50: 6.31 nM

CC(C)(C)C[C@H](NC(=O)C[C@H](c1ccccc1)C(F)(F)F)C(=O)NC(C[C@@H]1CCNC1=O)C(=O)C(=O)NC1CC1 (stereo partly specified) [WO2022129953, Example 17]
IC50: 13 nM

CCNC(=O)C(=O)C(C[C@@H]1CCNC1=O)NC(=O)[C@H](CC(C)(C)C)NC(=O)/C=C/c1ccc(Cl)cc1F (stereo partly specified) [WO2022129953, Example 23]
IC50: 13 nM

NC(=O)C(=O)C(C[C@@H]1CCNC1=O)NC(=O)[C@H](CC1CC1)NC(=O)OCc1ccccc1 (stereo partly specified) [WO2022129953, Example 3]
IC50: 25 nM

NC(=O)C(=O)C(CC1CC1)NC(=O)[C@H](CC1CC1)NC(=O)/C=C/c1ccccc1 (stereo partly specified) [WO2022129953, Example 6]
IC50: 5010 nM

CC[C@@H](CC(=O)N[C@@H](CC(C)(C)C)C(=O)NC(C[C@@H]1CCNC1=O)C(=O)C(=O)NC1CC1)c1ccccc1 (stereo partly specified) [WO2022129953, Example 14]
IC50: 7.9 nM

CC(C)(C)C[C@H](NC(=O)/C=C/c1ccc(Cl)cc1F)C(=O)NC(C[C@@H]1CCNC1=O)C(=O)C(N)=O (stereo partly specified) [WO2022129953, Example 22]
IC50: 6.31 nM

NC(=O)C(=O)C(C[C@@H]1CCNC1=O)NC(=O)[C@H](CC1CC1)NC(=O)/C=C/c1ccccc1 (stereo partly specified) [WO2022129953, Example 2]
IC50: 20 nM

CC(C)(C)C[C@H](NC(=O)C[C@@H](c1ccccc1)C(F)(F)F)C(=O)NC(C[C@@H]1CCNC1=O)C(=O)C(=O)NC1CC1 (stereo partly specified) [WO2022129953, Example 16]
IC50: 20 nM

O=C(/C=C/c1ccc(Cl)cc1F)N[C@@H](CC1CC1)C(=O)NC(C[C@@H]1CCNC1=O)C(=O)C(=O)NC1CC1 (stereo partly specified) [WO2022129953, Example 21]
IC50: 7.94 nM and 16 nM

C[C@@H](CC(=O)N[C@@H](CC(C)(C)C)C(=O)NC(C[C@@H]1CCNC1=O)C(=O)C(=O)NC1CC1)c1ccccc1 (stereo partly specified) [WO2022129953, Example 12]
IC50: 16 nM
